US20120029187A1, “HALOALKYLSULFONANILIDE DERIVATIVE” (Nissan Chemical Industries, Ltd., priority 2009, published 2012)

Columns and labels:
Format in all cases: in vivo
barnyardgrass [1] = test: Test Example 1: herbicidal effects in preemergence treatment under submerged conditions; conditions: dose 2.52 g/a
Outline: (§1)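 Submerged conditions, 4 cm water over alluvial soil. Weeds sown and 2.5-leaf rice transplanted; compound applied preemergence to water surface, doses in g per are. Greenhouse, 25 to 30° C., three weeks, then 0–5 mortality rating.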

bulrush [2] = test: as above; conditions: dose 2.52 g/a
Outline: as §1

ducksalad [3] = test: as above; conditions: dose 2.52 g/a
Outline: as §1

barnyardgrass [4] = test: Test Example 2: herbicidal effects during the vegetation period under submerged conditions; conditions: treatment during the vegetation period under submerged conditions; dose 2.52 g/a
Outline: (§2)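 Barnyardgrass, bulrush and ducksalad were co-sown in alluvial soil flooded to 4 cm and grown in a greenhouse at 25 to 30° C. At the 1- or 2-leaf stage, water-diluted emulsifiable concentrates went onto the water surface at set doses (g/a). Herbicidal effect was scored three weeks later on a graded scale.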

bulrush [5] = test: as above; conditions: treatment during the vegetation period under submerged conditions; dose 2.52 g/a
Outline: as §2

ducksalad [6] = test: as above; conditions: treatment during the vegetation period under submerged conditions; dose 2.52 g/a
Outline: as §2

Italian ryegrass [7] = test: Test Example 3: herbicidal effects in soil treatment; conditions: dose 3.2 g/a
Outline: (§3)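 Seeds were sown in sterilized diluvial soil and covered with about 1.5 cm of soil. Compounds, formulated as emulsifiable concentrates and diluted with water, were sprayed evenly over the soil surface at set doses in g/a. Herbicidal effect was scored on a rating scale three weeks later.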

barnyardgrass [8] = test: as above; conditions: dose 3.2 g/a
Outline: as §3

common chickweed [9] = test: as above; conditions: dose 3.2 g/a
Outline: as §3

common lambsquater [10] = test: as above; conditions: dose 3.2 g/a
Outline: as §3

common ragweed [11] = test: as above; conditions: dose 3.2 g/a
Outline: as §3

giant foxtail [12] = test: as above; conditions: dose 3.2 g/a
Outline: as §3

large crabgrass [13] = test: as above; conditions: dose 3.2 g/a
Outline: as §3

posumbu knotweed [14] = test: as above; conditions: dose 3.2 g/a
Outline: as §3

redroot pigweed [15] = test: as above; conditions: dose 3.2 g/a
Outline: as §3

velvetleaf [16] = test: as above; conditions: dose 3.2 g/a
Outline: as §3

water foxtail [17] = test: as above; conditions: dose 3.2 g/a
Outline: as §3

Italian ryegrass [18] = test: Test Example 4: herbicidal effect in foliage treatment; conditions: three weeks after application
Outline: (§4)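 Post-emergence foliar spray of water-diluted emulsifiable concentrate at predetermined doses (g per are), applied to plants 14 days after sowing in sterile diluvial soil (greenhouse, 25 to 30° C). Visual scale rating of effect taken 3 weeks later.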

barnyardgrass [19] = test: as above; conditions: three weeks after application
Outline: as §4

beadstraw = test: as above; conditions: dose 6.3 g/a, three weeks after application
Outline: as §4

common chickweed [20] = test: as above; conditions: three weeks after application
Outline: as §4

common lambsquater [21] = test: as above; conditions: three weeks after application
Outline: as §4

common ragweed [22] = test: as above; conditions: three weeks after application
Outline: as §4

giant foxtail [23] = test: as above; conditions: three weeks after application
Outline: as §4

large crabgrass [24] = test: as above; conditions: three weeks after application
Outline: as §4

posumbu knotweed [25] = test: as above; conditions: three weeks after application
Outline: as §4

redroot pigweed [26] = test: as above; conditions: three weeks after application
Outline: as §4

velvetleaf [27] = test: as above; conditions: three weeks after application
Outline: as §4

water foxtail [28] = test: as above; conditions: three weeks after application
Outline: as §4

transplanted rice = test: Test Example 1: preemergence treatment under submerged conditions, effect on crop; conditions: dose 2.52 g/a
Outline: as §1

Row | SMILES | A: barnyardgrass, herbicidal effect (evaluation scale 0-5) (barnyardgrass [1]) | B: bulrush, herbicidal effect (evaluation scale 0-5) (bulrush [2]) | C: ducksalad, herbicidal effect (evaluation scale 0-5) (ducksalad [3]) | A: barnyardgrass, herbicidal effect (evaluation scale 0-5) (barnyardgrass [4]) | B: bulrush, herbicidal effect (evaluation scale 0-5) (bulrush [5]) | C: ducksalad, herbicidal effect (evaluation scale 0-5) (ducksalad [6]) | H: Italian ryegrass, herbicidal effect (evaluation scale 0-5) (Italian ryegrass [7]) | A: barnyardgrass, herbicidal effect (evaluation scale 0-5) (barnyardgrass [8]) | N: common chickweed, herbicidal effect (evaluation scale 0-5) (common chickweed [9]) | L: common lambsquater, herbicidal effect (evaluation scale 0-5) (common lambsquater [10]) | J: common ragweed, herbicidal effect (evaluation scale 0-5) (common ragweed [11]) | E: giant foxtail, herbicidal effect (evaluation scale 0-5) (giant foxtail [12]) | D: large crabgrass, herbicidal effect (evaluation scale 0-5) (large crabgrass [13]) | M: posumbu knotweed, herbicidal effect (evaluation scale 0-5) (posumbu knotweed [14]) | K: redroot pigweed, herbicidal effect (evaluation scale 0-5) (redroot pigweed [15]) | I: velvetleaf, herbicidal effect (evaluation scale 0-5) (velvetleaf [16]) | G: water foxtail, herbicidal effect (evaluation scale 0-5) (water foxtail [17]) | other results
1 | CCOC(=O)N(c1ccccc1CN1CC(C)OCC1=O)S(=O)(=O)C(F)(F)F (stereo not shown) [Compound I-7] | 5 (mortality of 90% or above (nearly complete death)) | 5 (mortality of 90% or above (nearly complete death)) | 5 (mortality of 90% or above (nearly complete death)) | 5 (mortality of 90% or above (nearly complete death)) | 5 (mortality of 90% or above (nearly complete death)) | 5 (mortality of 90% or above (nearly complete death)) | 5 (mortality of 90% or above (nearly complete death)) | 5 (mortality of 90% or above (nearly complete death)) | 5 (mortality of 90% or above (nearly complete death)) | 5 (mortality of 90% or above (nearly complete death)) | 5 (mortality of 90% or above (nearly complete death)) | 5 (mortality of 90% or above (nearly complete death)) | 5 (mortality of 90% or above (nearly complete death)) | 5 (mortality of 90% or above (nearly complete death)) | 5 (mortality of 90% or above (nearly complete death)) | 5 (mortality of 90% or above (nearly complete death)) | 5 (mortality of 90% or above (nearly complete death)) | H: Italian ryegrass, herbicidal effect (Italian ryegrass [18]; dose 6.3 g/a): 5 (mortality of 90% or above (nearly complete death)); A: barnyardgrass, herbicidal effect (barnyardgrass [19]; dose 6.3 g/a): 5 (mortality of 90% or above (nearly complete death)); O: beadstraw, herbicidal effect (beadstraw): 5 (mortality of 90% or above (nearly complete death)); N: common chickweed, herbicidal effect (common chickweed [20]; dose 6.3 g/a): 5 (mortality of 90% or above (nearly complete death)); L: common lambsquater, herbicidal effect (common lambsquater [21]; dose 6.3 g/a): 4 (mortality of at least 70% and less than 90%); J: common ragweed, herbicidal effect (common ragweed [22]; dose 6.3 g/a): 4 (mortality of at least 70% and less than 90%); E: giant foxtail, herbicidal effect (giant foxtail [23]; dose 6.3 g/a): 5 (mortality of 90% or above (nearly complete death)); D: large crabgrass, herbicidal effect (large crabgrass [24]; dose 6.3 g/a): 5 (mortality of 90% or above (nearly complete death)); M: posumbu knotweed, herbicidal effect (posumbu knotweed [25]; dose 6.3 g/a): 4 (mortality of at least 70% and less than 90%); K: redroot pigweed, herbicidal effect (redroot pigweed [26]; dose 6.3 g/a): 1 (mortality of at least 5% and less than 20%); I: velvetleaf, herbicidal effect (velvetleaf [27]; dose 6.3 g/a): 5 (mortality of 90% or above (nearly complete death)); G: water foxtail, herbicidal effect (water foxtail [28]; dose 6.3 g/a): 5 (mortality of 90% or above (nearly complete death))
2 | CCOC(=O)N(c1ccccc1CN1COC(C)(c2ccccc2)CC1=O)S(=O)(=O)C(F)(F)F (stereo not shown) [II-58] | 5 (mortality of 90% or above (nearly complete death)) | 5 (mortality of 90% or above (nearly complete death)) | 5 (mortality of 90% or above (nearly complete death)) | 4 (mortality of at least 70% and less than 90%) | 5 (mortality of 90% or above (nearly complete death)) | 5 (mortality of 90% or above (nearly complete death)) | 4 (mortality of at least 70% and less than 90%) | 0 (mortality of less than 5% (almost ineffective)) | 0 (mortality of less than 5% (almost ineffective)) | 0 (mortality of less than 5% (almost ineffective)) | 0 (mortality of less than 5% (almost ineffective)) | 0 (mortality of less than 5% (almost ineffective)) | 0 (mortality of less than 5% (almost ineffective)) | 4 (mortality of at least 70% and less than 90%) | 0 (mortality of less than 5% (almost ineffective)) | 0 (mortality of less than 5% (almost ineffective)) | 5 (mortality of 90% or above (nearly complete death)) | a: transplanted rice, effect on crop (evaluation scale 0-5) (transplanted rice): 0 (mortality of less than 5% (almost ineffective)); H: Italian ryegrass, herbicidal effect (Italian ryegrass [18]; dose 3.2 g/a): 4 (mortality of at least 70% and less than 90%); A: barnyardgrass, herbicidal effect (barnyardgrass [19]; dose 3.2 g/a): 3 (mortality of at least 40% and less than 70%); N: common chickweed, herbicidal effect (common chickweed [20]; dose 3.2 g/a): 4 (mortality of at least 70% and less than 90%); L: common lambsquater, herbicidal effect (common lambsquater [21]; dose 3.2 g/a): 1 (mortality of at least 5% and less than 20%); J: common ragweed, herbicidal effect (common ragweed [22]; dose 3.2 g/a): 3 (mortality of at least 40% and less than 70%); E: giant foxtail, herbicidal effect (giant foxtail [23]; dose 3.2 g/a): 0 (mortality of less than 5% (almost ineffective)); D: large crabgrass, herbicidal effect (large crabgrass [24]; dose 3.2 g/a): 0 (mortality of less than 5% (almost ineffective)); M: posumbu knotweed, herbicidal effect (posumbu knotweed [25]; dose 3.2 g/a): 3 (mortality of at least 40% and less than 70%); K: redroot pigweed, herbicidal effect (redroot pigweed [26]; dose 3.2 g/a): 0 (mortality of less than 5% (almost ineffective)); I: velvetleaf, herbicidal effect (velvetleaf [27]; dose 3.2 g/a): 0 (mortality of less than 5% (almost ineffective)); G: water foxtail, herbicidal effect (water foxtail [28]; dose 3.2 g/a): 3 (mortality of at least 40% and less than 70%)
